Seven molecules from ChEMBL document CHEMBL4414594, “Hepatoprotective Tetrahydrobenzocyclooctabenzofuranone Lignans from Kadsura longipedunculata” (2019) can be followed below.

A word on the inhibition: it is the percentage by which the read-out fell short of the control.

Assay [1] deals with Peritoneal macrophage. In words: Antiinflammatory activity in C57BL/6J mouse peritoneal macrophages assessed as inhibition of LPS-induced nitric oxide production at 10 uM incubated for 24 hrs in presence of LPS by Griess test relative to control. Format: functional.
In assay [2] the test system is HepG2. As to the kind of experiment: Hepatoprotective activity against APAP-induced cytotoxicity in human HepG2 cells assessed as cell survival rate at 10 uM incubated for 48 hrs by MTT assay relative to control. Format: functional. A general note: Formazan colour is commonly taken as a measure of viable cells.

The source made the active and inactive calls. No cut-off for these calls is given here.

In the case of `C/C=C(/C)C(=O)O[C@H]1c2cc(O)c(O[C@@H]3O[C@H](CO)[C@@H](O)[C@H](O)[C@H]3O)c3c2[C@@]2(CO3)C(=O)C(OC)=C(OC)C=C2C[C@@H](C)[C@H]1C`, the inhibition at 10 µM in assay [1] worked out at 55.1%.
On to `COC(=O)c1cc(OC)c2c(c1-c1c(CO)cc(OC)c3c1OCO3)OCO2` [BICYCLOL], for which the Activity in assay [2] came to 49%.
As to `COc1c(O)cc2c(c1OC)-c1c(cc(O)c(OC)c1OC)[C@H](OC(=O)c1ccccc1)[C@H](C)[C@H](C)C2`, the outcome in assay [2] was inactive.
On to `COc1c(O[C@@H]2O[C@H](CO)[C@@H](O)[C@H](O)[C@H]2O)cc2c(c1O)-c1c(cc3c(c1OC)OCO3)[C@H](O)[C@H](C)[C@H](C)C2`, for which the result in assay [2] was inactive.
For the molecule `C/C=C/c1ccc(O[C@H](C)[C@@H](O)c2cc(O)c(OC)c(OC)c2)c(OC)c1`, in assay [1], the inhibition at 10 µM amounted to 89.8%.
As to `COC1=C(OC)C(=O)[C@]23COc4c5c(cc(c42)[C@H](OC(=O)/C=C/c2ccccc2)[C@H](C)[C@@](C)(O)CC3=C1)OCO5`, the Activity in assay [2] was 37%.
Regarding `COC1=C(OC)C(=O)[C@]23COc4c5c(cc(c42)[C@H](OC(=O)/C=C/c2ccccc2)[C@H](C)[C@](C)(O)CC3=C1)OCO5`, the Activity in assay [2] came to 50.8%. In assay [1], the inhibition at 10 µM stood at 74.9%.
